One experiment concerns the target T1, myc-GPR139(WT) (Homo sapiens, UniProt Q6DWJ6).
T1 construct: mGluR5 signal peptide (N); expressed in transfected cells; host or cells: HEK293
T1 sequence (Q6DWJ6 2-353 limits assumed): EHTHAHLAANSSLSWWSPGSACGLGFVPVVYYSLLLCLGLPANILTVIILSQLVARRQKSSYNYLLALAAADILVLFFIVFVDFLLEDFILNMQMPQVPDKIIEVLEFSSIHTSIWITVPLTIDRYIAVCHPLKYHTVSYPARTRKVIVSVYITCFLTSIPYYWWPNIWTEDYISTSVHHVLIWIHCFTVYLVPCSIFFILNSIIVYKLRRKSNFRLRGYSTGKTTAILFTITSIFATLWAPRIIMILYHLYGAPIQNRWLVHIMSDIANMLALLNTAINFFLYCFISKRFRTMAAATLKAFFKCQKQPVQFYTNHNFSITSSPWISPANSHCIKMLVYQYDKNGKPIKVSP
The experiment in a line: Fluo-4 Ca2+-assay, myc-tagged wild-type GPR139 in HEK293. The experiment is classed as cell-based. Conditions: for Emax: HEK293; for EC50: Fluo-4 Ca2+-assay. An excerpt:
(§1) To study the influence of specific amino acids in the predicted binding pocket on receptor function, the desired mutations were introduced into an N-terminally c-myc-tagged wild type human GPR139 (NM_001002911.3) in the pEGFP-N1 vector (BD Biosciences)[32], [33]. As previously described, these plasmids carry the signal peptide of mGluR5 to promote cell surface expression followed by a c-myc epitope to enable detection of total and surface expression by ELISA, followed by an engineered MluI and NotI site for easy insertion of the receptor of interest. Furthermore, the start-codon in the GPR139 sequence was deleted to ensure c-myc-tagging. Mutagenesis was designed in Serial Cloner 2.6 (© Franck Perez [SerialBasics]) and carried out by GenScript (USA). All mutated residues are illustrated in Supplementary Fig. 1b. An untagged GPR139(WT) in pEGFP-N1 was also generated to ensure that the c-myc-tag had no influence on GPR139(WT) function.
(§2) All GPR139 mutants were transfected into HEK293 cells. The HEK293 cells were grown in Dulbecco’s modified Eagle’s medium (DMEM) (Gibco, 41965) supplemented with 10% dialyzed fetal bovine serum (Gibco, 26400, United States origin), 100 units/mL penicillin and 100 μg/mL streptomycin (Gibco, 15140). HEK293 cells were reverse transfected using Lipofectamine2000 (Invitrogen). More specifically two mixtures were made: 1) 10 ng DNA/well + 25 μL Opti-MEM/well and 2) […] Lipofectamine2000/well + 25 μL Opti-MEM/well. The two mixtures were mixed and 50 μL/well was added directly in black 96-well plates with flat clear bottoms for the Fluo-4 Ca^2+-assay (Corning, Falcon, 353219) or in white Opaque 96-well Microplate (PerkinElmer Life, 6005680) for ELISA. 100 μL containing 20,000 cells were added to each well and incubated 48 hours before assays. All plates were coated with poly-D-lysine.
(§3) Compound 1a (1a) was kindly provided by H. Lundbeck A/S, Denmark. […] Both compounds were dissolved to 20 mM in DMSO (Sigma, D2650) and subsequently diluted in a HEPES buffer (HBSS (Gibco, 14025) supplemented with 20 mM HEPES + 1 mM MgCl2 + 1 mM CaCl2, pH = 7.4) to a final concentration of 0.5% DMSO in the Fluo-4 Ca^2+-assay. The DMSO level was kept constant for all concentrations of both compounds. DMSO was confirmed not to have any activity by itself at this concentration. L-Trp (T0254) and L -Phe (P2126) were obtained from Sigma-Aldrich and dissolved in buffer.
(§4) The Ca^2+ measurements were preformed using the Fluo-4 NW Calcium Assay Kit (Invitrogen, Molecular Probes, F36206) as previously described. Briefly, the Fluo-4 dye loading solution was prepared according to the manufacturer’s instructions by dissolving it in HEPES-buffer supplemented with 2.5 mM probenecid. 50 μL dye loading solution was added to each well. Cells were incubated with the Fluo-4 dye for 60 min at 37 °C, then washed with 100 μL HEPES-buffer. 100 μL HEPES-buffer supplemented with 2.5 mM probenecid was then added to each well and incubated in 10 minutes at 37 °C before measurement. […] Intracellular calcium changes were recorded as indicated on either a NOVOstar (BMG Labtech) at 37 °C with an excitation filter of 485 nm and an emission filters 520 nm or a FlexStation 3 Benchtop Multi-Mode Microplate Reader (Molecular Devices) at 37 °C with an excitation wavelength of 485 nm and emission of 525 nm.
(§5) All pharmacological data have been analyzed by using Prism 6.0 (GraphPad Software Inc., San Diego). Fitting of concentration response curves was performed by non-linear regression log(agonist) vs. response (four parameters). Pooled data are shown with standard error of the mean (S.E.M.) and data showing one representative are shown with standard deviation (S.D.). Changes in potency (pEC50) and span of myc-GPR139(WT) in comparison to untagged GPR139(WT) was statistically analyzed with a paired t-test and significance was accepted at p < 0.05. The ELISA data were normalized to surface expression of myc-GPR139(WT) (100%). […]

The target in the next experiment is T2, GPR139 N271A^7×38 (Homo sapiens, UniProt Q6DWJ6, N271A).
T2 construct: mGluR5 signal peptide (N); expressed in transfected cells; host or cells: HEK293
T2 sequence (Q6DWJ6 2-353 N271A limits assumed): T1 sequence (Q6DWJ6 2-353 limits assumed) with N270A
The experiment in a line: Fluo-4 Ca2+-assay, GPR139 mutant N271A. The experiment is classed as cell-based. The following applies: for EC50: N271A mutant (surface expression 53% of WT); for Change of in vitro potency: N271A mutant versus WT. More on the design: key to Emax ± SEM: NE: no effect (loss of activity).
Description: as §1, §2, §3, §4, §5

The subject of a further experiment is GPR139. The following applies: cited from earlier work; for activation of GPR139, concentration range: ref Isberg et al. and Liu et al.
Where [1] appears, read: WT, HEK293, three independent experiments, read-out: pEC50 ± SEM (converted).

Changes are numbered by the printed parent chain. Where two headings read alike, the source gives them in different places.

`C[C@@H](NC(=O)CNC(=O)c1cccc(Cl)c1)c1ccccc1` (racemic) [Compound 7c]: the Emax on myc-GPR139(WT) came out at 100%. At myc-GPR139(WT) (setting [1]), the EC50 was 0.0479 µM. On GPR139 N271A^7×38, the EC50 is more than 100 µM and the “Change of in vitro potency” value is on record as “Loss of function”. For the same molecule, the “Emax ± SEM” value at GPR139 N271A^7×38 (N271A, at 100 μM, normalized to buffer (0%) and 100 μM 7c (100%) on WT) is given as “NE**”. The agonist potency entry in the experiment on GPR139 (ref Dvorak et al.) is listed as “ten-nanomolar range”.

On to `COc1cc(OC)cc(C(=O)NNC(=O)Nc2cccc3ccccc23)c1` [Compound 1a], for which the EC50 was 0.234 µM on myc-GPR139(WT) (setting [1]); 0.67 µM on myc-GPR139(WT) (myc-tagged wild-type (WT) receptor, read-out: EC50); more than 7.94 µM on GPR139 N271A^7×38. Further, at GPR139 N271A^7×38, the “Change of in vitro potency” value was “Loss of function”. In addition, the “Emax ± SEM” value at GPR139 N271A^7×38 (N271A, at 8 μM, normalized to buffer (0%) and 8 μM 1a (100%) on WT) is “NE*”. The agonist potency result with GPR139 (ref Shi et al.) was “ten-nanomolar range”.

For the molecule `N[C@@H](Cc1ccccc1)C(=O)O` [L-Phe, phenylalanine], at myc-GPR139(WT) (WT, normalized to buffer (0%) and 30 mM Phe (100%)), the Emax turned out to be 100%. The EC50 on myc-GPR139(WT) (setting [1]) was 372 µM; at GPR139 N271A^7×38, more than 31600 µM. At GPR139 N271A^7×38 (N271A, at 30 mM, normalized to buffer (0%) and 30 mM Phe (100%) on WT), this molecule returned an Emax at 30000 µM of 38 ± 9%. The “activation of GPR139, concentration range” value in the experiment with GPR139 was “hundred-micromolar range”.

Molecule `N[C@@H](Cc1c[nH]c2ccccc12)C(=O)O` [L-Trp, tryptophan] showed a maximum response (Emax) on myc-GPR139(WT) (WT, normalized to buffer (0%) and 10 mM Trp (100%)) of 100%. The EC50 at myc-GPR139(WT) (setting [1]) is 200 µM; on GPR139 N271A^7×38, more than 10000 µM. Also, at GPR139 N271A^7×38 (N271A, at 10 mM, normalized to buffer (0%) and 10 mM Trp (100%) on WT), the Emax at 10000 µM is 31 ± 5%. For the same molecule, in the experiment with GPR139, the “activation of GPR139, concentration range” value is on record as “hundred-micromolar range”.

These data come from article PMC5430874 (Scientific Reports, 2017).
